Results from patent publication US8883140B2 (Henkel AG & Co. KGaA, priority 2010, dated 2014).

Test system: variant F49 of the protease from Bacillus lentus
Test: Residual proteolytic activity after storage in liquid washing agent (suc-AAPF-pNA release)
Assay type: biochemical
Conditions: 13 days at 30° C., based on initial activity of 100%
Source text: A liquid washing agent of the following composition served as a baseline washing agent formulation (all indications in percent by weight): 0.3 to 0.5% xanthan, 0.2 to 0.4% antifoaming agent, 6 to 7% glycerol, 0.3 to 0.5% ethanol, 4 to 7% FAEOS (fatty alcohol ether sulfate), 24 to 28% nonionic surfactants, 1 to 2% sodium citrate (dihydrate), 2 to 4% soda, 14 to 16% coconut fatty acids, 0.5% HEDP (1-hydroxyethane-(1,1-diphosphonic acid)), 0 to 0.4% PVP (polyvinylpyrrolidone), 0 to 0.05% optical brightener, 0 to 0.001% dye, remainder demineralized water.
The oligoaminobiphenyl oligocarboxylic acid 3,3-diamino-[1,1-biphenyl]-2,4-dicarboxylic acid was incorporated into this formulation as the component stabilizing the hydrolytic enzyme, as indicated below (see Table 1, indications in this regard in wt %). Comparison formulations that contained either boric acid as an enzyme stabilizer, or no enzyme stabilizer, served as controls. The protease used was variant F49 of the protease from Bacillus lentus in accordance with WO 95/23221 (quantity used: 1 wt % active substance).
After storage, the respective residual proteolytic activity was determined by way of the release of the para-nitroaniline (pNA) chromophore from the suc-L-Ala-L-Ala-L-Pro-L-Phe-p-nitroanilide substrate (suc-AAPF-pNA) (SEQ ID NO. 1). The protease cleaves the substrate and releases pNA. The release of pNA causes an increase in extinction at 410 nm, the time course of which is an indication of enzymatic activity (see Del Mar et al., 1979). Measurement occurred at a temperature of 25° C., at pH 8.6 and at a wavelength of 410 nm. The measurement time was 5 min, with a measurement interval from 20 s to 60 s. The proteolytic activity values obtained are indicated in Table 1 below, based on an initial activity of 100% when storage began.

[1] = 1.0 wt % (1%) stabilizer in baseline liquid washing agent

SMILES | residual proteolytic activity after storage (0.1 wt % stabilizer in baseline liquid washing agent) | residual proteolytic activity after storage (0.5 wt % stabilizer in baseline liquid washing agent) | residual proteolytic activity after storage [1] | residual proteolytic activity after storage (2.0 wt % stabilizer in baseline liquid washing agent)
Nc1cc(-c2cccc(N)c2C(=O)O)ccc1C(=O)O | 30.2% | 43.5% | 48.0% | 73.6%
OB(O)O [boric acid, reference compound] |  |  | 74.9% | 
